We go through one substance from patent US20110020786A1, “PEPTIDE DENDRIMERS: AFFINITY REAGENTS FOR BINDING NOROVIRUSES” (BAYLOR COLLEGE OF MEDICINE, priority 2007, published 2011).

Ends that are not written are not given here.

Test [1] concerns native genogroup II Norovirus from clinical samples. Put plainly: Native NoV capture and detection in clinical samples by ELISA. Format: binding. The following applies: dendrimer as capture reagent, stool samples GII #1-3, bound virus detected with NS14. As to the method:
The capture reagent was RHFQTHTVPLSL8 (the octovalent dendrimer of SEQ ID NO: 1) (middle bars), or AHFQTHTVPLSL8 (the octovalent dendrimer of SEQ ID NO: 2) (right bars) and bound virus was detected with a MAb3912 (GI) or NS14 (GII). […] For comparison, detection of Norovirus from genogroup I samples (GI#1-3) was evaluated using a genogroup I specific antibody as the capture reagent (left bars). The potential of false positive signals was evaluated using clinical samples negative for Norovirus (negative #1-3) with anti-genogroup I antibody, RHFQTHTVPLSL8 (the octovalent dendrimer of SEQ ID NO: 1) and AHFQTHTVPLSL8 (the octovalent dendrimer of SEQ ID NO: 2) as capture reagents.
Capture and detection of native NoV from clinical samples was performed by ELISA. […] Captured NoV was detected with an anti-Norwalk virus antibody from rabbit (for genogroup I Norwalk detection) or NS14 (for genogroup II NoV detection) as the primary antibody followed by goat anti-rabbit-HRP or goat anti-mouse-HRP as the secondary antibody with detection at 405 nm using the HRP substrate ABTS.

Another test concerns the target immobilized NoVLPs. Put plainly: Surface plasmon resonance, dendrimer binding to immobilized NoVLPs (KD determination). On the set-up: species or system Norovirus. The following applies: steady-state model fit of equilibrium average response, 8-240 μM dendrimer, HBS-P, 10 μL/min. The protocol:
FIGS. 4A-4B are charts illustrating the concentration dependence of RHFQTHTVPLSL8 (the octovalent dendrimer of SEQ ID NO: 1) binding to immobilized NoVLPs. 1-8 μM; 2-32 μM; 3-64 μM; 4-96 μM; 5-160 μM; 6-240 μM; (FIG. 4A). Samples were prepared in the running buffer (HBS-P) and injected at a flowrate of 10 μL/min. The arrow indicates the end of the injection of the dendrimer (binding phase) which is followed by washing with running buffer (dissociation phase).
Peptide binding to VLPs was detected using a BIAcore 3000 instrument. VLPs were immobilized to a CM5 sensor chip using amine coupling at 5 μL/min in HBS buffer (10 mM HEPES containing 0.15 M NaCl and 0.005% surfactant P20, pH 7.4): the sensor chip surface was activated by a 10 min injection of a solution of 0.05 M NHS (N-hydroxysuccinimide) and 0.2 M EDC (N-ethyl-N′-dimethylaminopropylcarbodiimide) followed by a 5 min injection of VLPs (100 μg/mL) in 10 mM sodium acetate pH 4 and blocking of unreacted activated groups with a 7 min injection of ethanolamine. Final surface densities were typically around 9000 RU.

As for “RHFQTHTVPLSL8 (also: octovalent dendrimer of the peptide)”, the “capture of native genogroup II Norovirus from clinical samples” value in test [1] is listed as “No genogroup II virus could be detected”. The substance also gave an equilibrium dissociation constant (Kd) on immobilized NoVLPs of 117 µM.

Usually Kd stands for the equilibrium constant for the complex coming apart. A low value points to a tighter complex.
